Measured values published in ChEMBL document CHEMBL1909046, “DrugMatrix in vitro pharmacology data”.

How the values were obtained:
[1] = target: C-C chemokine receptor type 5 (Homo sapiens, UniProt P51681); type: cell membranes, HEK293, Membrane; details: hek293; further: in other assays of this panel Not Active means under 50% inhibition at 10 µM
[2] = DRUGMATRIX: Interleukin IL-1 radioligand binding (ligand: [125I] interleukin 1beta); type: cell membranes, Membrane; details: nih3t3; Not Active = under 50% inhibition at 10 µM
[3] = target: T1, Angiotensin-converting enzyme (Oryctolagus cuniculus, UniProt P12822); experiment: biochemical; type: tissue-based, Lung;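 further: enzymatic inhibition of angiotensin-converting enzyme measured with FAPGG as the substrate; in other assays of this panel Not Active means under 50% inhibition at 10 µM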
T1 sequence (P12822 whole entry): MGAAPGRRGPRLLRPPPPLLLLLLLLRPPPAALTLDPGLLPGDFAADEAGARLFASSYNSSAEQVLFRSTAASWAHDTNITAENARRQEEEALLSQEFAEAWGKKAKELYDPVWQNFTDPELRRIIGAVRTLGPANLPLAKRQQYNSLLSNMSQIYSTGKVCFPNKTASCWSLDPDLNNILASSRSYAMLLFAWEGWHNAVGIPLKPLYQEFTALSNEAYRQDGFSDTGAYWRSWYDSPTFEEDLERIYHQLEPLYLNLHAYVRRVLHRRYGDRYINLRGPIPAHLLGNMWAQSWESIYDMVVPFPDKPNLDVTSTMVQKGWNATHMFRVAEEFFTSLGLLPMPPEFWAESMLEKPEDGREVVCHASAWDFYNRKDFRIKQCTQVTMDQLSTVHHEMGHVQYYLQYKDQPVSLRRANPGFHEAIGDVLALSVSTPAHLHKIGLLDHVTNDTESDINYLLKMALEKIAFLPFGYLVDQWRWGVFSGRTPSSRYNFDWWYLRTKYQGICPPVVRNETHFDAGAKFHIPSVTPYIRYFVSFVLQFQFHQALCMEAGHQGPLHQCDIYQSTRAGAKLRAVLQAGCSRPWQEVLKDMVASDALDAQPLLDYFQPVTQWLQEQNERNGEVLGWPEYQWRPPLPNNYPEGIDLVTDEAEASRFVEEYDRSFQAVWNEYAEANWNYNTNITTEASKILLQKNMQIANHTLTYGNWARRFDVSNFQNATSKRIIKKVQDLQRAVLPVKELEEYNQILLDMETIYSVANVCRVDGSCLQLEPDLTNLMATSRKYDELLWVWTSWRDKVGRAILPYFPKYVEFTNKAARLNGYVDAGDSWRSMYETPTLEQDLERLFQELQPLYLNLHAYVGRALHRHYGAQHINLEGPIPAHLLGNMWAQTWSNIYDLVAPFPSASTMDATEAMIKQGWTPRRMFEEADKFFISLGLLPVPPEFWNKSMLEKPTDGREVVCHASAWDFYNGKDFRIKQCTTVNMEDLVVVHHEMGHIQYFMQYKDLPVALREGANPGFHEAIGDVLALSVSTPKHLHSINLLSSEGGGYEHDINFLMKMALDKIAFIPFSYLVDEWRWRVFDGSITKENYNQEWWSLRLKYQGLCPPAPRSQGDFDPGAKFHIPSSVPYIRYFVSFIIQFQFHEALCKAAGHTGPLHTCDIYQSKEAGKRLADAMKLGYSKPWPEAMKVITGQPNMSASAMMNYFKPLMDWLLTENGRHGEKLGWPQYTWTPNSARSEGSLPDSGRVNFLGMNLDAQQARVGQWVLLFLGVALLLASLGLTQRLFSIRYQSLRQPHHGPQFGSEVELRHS

[4] = target: 5-hydroxytryptamine receptor 1B (Rattus norvegicus, UniProt P28564); type: cell membranes, Wistar, Cerebral cortex, Membrane; further: in other assays of this panel Not Active means under 50% inhibition at 10 µM
Sequence of 5-hydroxytryptamine receptor 1B (P28564 whole entry): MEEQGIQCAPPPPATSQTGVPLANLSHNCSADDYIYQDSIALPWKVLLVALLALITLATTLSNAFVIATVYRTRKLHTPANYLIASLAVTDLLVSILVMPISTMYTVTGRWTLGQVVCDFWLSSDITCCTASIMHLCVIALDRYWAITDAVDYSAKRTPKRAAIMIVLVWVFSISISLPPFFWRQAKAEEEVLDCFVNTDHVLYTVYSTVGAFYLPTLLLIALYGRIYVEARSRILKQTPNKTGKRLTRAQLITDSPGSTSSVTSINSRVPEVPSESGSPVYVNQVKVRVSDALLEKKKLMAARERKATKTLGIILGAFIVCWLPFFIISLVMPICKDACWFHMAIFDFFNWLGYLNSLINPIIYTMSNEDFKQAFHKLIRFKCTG

[5] = target: Sigma non-opioid intracellular receptor 1 (Homo sapiens, UniProt Q99720); experiment: DRUGMATRIX: Sigma1 radioligand binding (ligand: [3H] Haloperidol); type: cell membranes, Jurkat, Membrane; details: jurkat; Not Active = under 50% inhibition at 10 µM
Sequence of Sigma non-opioid intracellular receptor 1 (Q99720 whole entry): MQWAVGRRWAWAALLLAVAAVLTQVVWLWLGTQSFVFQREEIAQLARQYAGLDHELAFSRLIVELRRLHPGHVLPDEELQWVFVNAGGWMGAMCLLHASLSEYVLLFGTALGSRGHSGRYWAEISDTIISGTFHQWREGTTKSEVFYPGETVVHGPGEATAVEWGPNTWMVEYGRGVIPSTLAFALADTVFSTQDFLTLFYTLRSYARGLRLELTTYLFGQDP

Mu-type opioid receptor = Mu-type opioid receptor (Homo sapiens, UniProt P35372); experiment: DRUGMATRIX: Opiate mu (OP3, MOP) radioligand binding (ligand: [3H] Diprenorphine); type: cell membranes, CHO-K1, Membrane; details: cho-k1; Not Active = under 50% inhibition at 10 µM
Sequence of Mu-type opioid receptor (P35372 whole entry): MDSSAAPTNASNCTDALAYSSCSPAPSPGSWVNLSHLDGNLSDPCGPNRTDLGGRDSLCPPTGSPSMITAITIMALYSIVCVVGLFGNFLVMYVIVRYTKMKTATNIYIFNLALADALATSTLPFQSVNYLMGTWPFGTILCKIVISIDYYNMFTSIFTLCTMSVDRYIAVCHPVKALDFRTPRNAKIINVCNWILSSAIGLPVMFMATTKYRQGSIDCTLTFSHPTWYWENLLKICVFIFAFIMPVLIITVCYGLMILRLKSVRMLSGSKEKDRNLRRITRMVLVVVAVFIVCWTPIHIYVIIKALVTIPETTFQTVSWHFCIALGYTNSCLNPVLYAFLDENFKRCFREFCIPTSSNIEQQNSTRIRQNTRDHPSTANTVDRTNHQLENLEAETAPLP

[6] = DRUGMATRIX: Glutamate, Kainate radioligand binding (ligand: [3H] Kainic acid); type: cell membranes, Rattus norvegicus, Wistar, Brain, Membrane; details: Not Active = under 50% inhibition at 10 µM

Sequence of C-C chemokine receptor type 5 (P51681 whole entry): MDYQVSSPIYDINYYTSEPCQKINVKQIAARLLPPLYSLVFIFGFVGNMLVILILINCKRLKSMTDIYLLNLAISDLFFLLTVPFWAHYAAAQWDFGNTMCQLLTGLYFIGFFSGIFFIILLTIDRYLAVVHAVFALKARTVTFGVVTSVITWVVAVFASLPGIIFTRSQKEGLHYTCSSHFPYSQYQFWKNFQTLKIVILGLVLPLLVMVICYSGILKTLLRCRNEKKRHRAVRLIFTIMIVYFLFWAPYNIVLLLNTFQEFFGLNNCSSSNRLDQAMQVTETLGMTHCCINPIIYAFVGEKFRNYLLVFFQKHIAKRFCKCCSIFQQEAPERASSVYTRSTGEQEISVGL

c1ccc(Cn2ccnc2)cc1
Not Active: IC50 [1] | IC50 [2] | Ki [2] | IC50 [3] | IC50 [4] | IC50 [5] | IC50 (Mu-type opioid receptor) | IC50 [6] | Ki [6]

OC[C@H]1OC2C3[C@@H](CO)OC(O[C@H]4[C@H](O)[C@@H](O)[C@@H](O[C@H]5[C@H](O)[C@@H](O)[C@@H](O[C@H]6[C@H](O)[C@@H](O)[C@@H](O[C@H]7[C@H](O)[C@@H](O)[C@@H](O[C@H]8[C@H](O)[C@@H](O)[C@@H](O[C@H]9[C@H](O)[C@@H](O)C(OC1[C@H](O)[C@H]2O)O[C@@H]9CO)O[C@@H]8CO)O[C@@H]7CO)O[C@@H]6CO)O[C@@H]5CO)O[C@@H]4CO)[C@H](O)[C@H]3O
Not Active: IC50 [1] | IC50 [2] | Ki [2] | IC50 [3] | IC50 [4] | IC50 [5] | IC50 (Mu-type opioid receptor) | IC50 [6] | Ki [6]

O=c1[nH]c2ccccc2c2ccccc12
Not Active: IC50 [1] | IC50 [2] | Ki [2] | IC50 [3] | IC50 [4] | IC50 [5] | IC50 (Mu-type opioid receptor) | IC50 [6] | Ki [6]

CO[C@H]1O[C@@H]2O[C@@]3(C)CC[C@H]4[C@H](C)CC[C@@H]([C@H]1C)[C@@]24OO3
Not Active: IC50 [1] | IC50 [2] | Ki [2] | IC50 [3] | IC50 [4] | IC50 [5] | IC50 (Mu-type opioid receptor) | IC50 [6] | Ki [6]

Nc1ccc(Cc2ccc(N)cc2)cc1
Not Active: IC50 [1] | IC50 [2] | Ki [2] | IC50 [3] | IC50 [4] | IC50 [5] | IC50 [6] | Ki [6]

C=C(Cl)Cl [1,1-DICHLOROETHENE]
Not Active: IC50 [1] | IC50 [2] | Ki [2] | IC50 [3] | IC50 [4] | IC50 [5] | IC50 [6] | Ki [6]

CCN1C[C@]2(COC)[C@H](O)C[C@H](OC)[C@@]34[C@@H]5C[C@@]6(O)[C@H](OC(=O)c7ccccc7)[C@@H]5[C@@](OC(C)=O)([C@@H]([C@H](OC)[C@H]23)[C@@H]14)[C@@H](O)[C@@H]6OC [ACONITINE]
Not Active: IC50 [1] | IC50 [2] | Ki [2] | IC50 [3] | IC50 [4] | IC50 [5] | IC50 [6] | Ki [6]

C=CCO [ALLYL ALCOHOL]
Not Active: IC50 [1] | IC50 [2] | Ki [2] | IC50 [3] | IC50 [4] | IC50 [5] | IC50 [6] | Ki [6]

ClC1=C(Cl)[C@]2(Cl)[C@@H]3[C@@H]4C[C@@H]([C@H]5O[C@@H]45)[C@@H]3[C@@]1(Cl)C2(Cl)Cl [DIELDRIN]
Not Active: IC50 [1] | IC50 [2] | Ki [2] | IC50 [3] | IC50 [4] | IC50 [5] | IC50 [6] | Ki [6]

O=C(O)CNCP(=O)(O)O [GLYPHOSATE]
Not Active: IC50 [1] | IC50 [2] | Ki [2] | IC50 [3] | IC50 [4] | IC50 [5] | IC50 [6] | Ki [6]

C=CCN1CC[C@]23c4c5ccc(O)c4O[C@H]2/C(=N/N=C2\CC[C@@]4(O)[C@H]6Cc7ccc(O)c8c7[C@@]4(CCN6CC=C)[C@H]2O8)CC[C@@]3(O)[C@H]1C5 [NALOXONAZINE]
Not Active: IC50 [1] | IC50 [2] | Ki [2] | IC50 [3] | IC50 [4] | IC50 [5] | IC50 [6] | Ki [6]

COc1cc([C@@H]2c3cc4c(cc3[C@H](O)[C@H]3COC(=O)[C@H]23)OCO4)cc(OC)c1OC [PODOFILOX]
Not Active: IC50 [1] | IC50 [2] | Ki [2] | IC50 [3] | IC50 [4] | IC50 [5] | IC50 [6] | Ki [6]

CARBOXYMETHYLCELLULOSE
Not Active: IC50 [1] | Ki [1] | IC50 [2] | Ki [2] | IC50 [3] | Ki [3] | IC50 [4] | Ki [4] | IC50 [5] | Ki [5] | IC50 [6] | Ki [6]

CHROMIC CHLORIDE
Not Active: IC50 [1] | Ki [1] | IC50 [2] | Ki [2] | IC50 [3] | Ki [3] | IC50 [4] | Ki [4] | IC50 [5] | Ki [5] | IC50 [6] | Ki [6]

COPPER(II) OXIDE
Not Active: IC50 [1] | Ki [1] | IC50 [2] | Ki [2] | IC50 [3] | Ki [3] | IC50 [4] | Ki [4] | IC50 [5] | Ki [5] | IC50 [6] | Ki [6]

POVIDONE
Not Active: IC50 [1] | Ki [1] | IC50 [2] | Ki [2] | IC50 [3] | Ki [3] | IC50 [4] | Ki [4] | IC50 [5] | Ki [5] | IC50 [6] | Ki [6]
